Assay in series [1]: not given
This is another data set of the same source.

Assay in series [2]: not given
The source holds these as a separate data set.

Assay in series [3]: not given
This is another data set of the same source.

Structures can show the parent of a compound that is named as a salt.

With `CCC(Cl)Cl` [1,1-dichloropropane], the flash point worked out at 21.00 °C. In addition, the flash point in series [1] was determined as 7 °C. The molecule `ClCC(Cl)CCl` [1,2,3-Trichloropropane] registered a flash point in series [2] of 82.00 °C. On the same count and under the same terms, the figure for `Clc1ccc(Cl)c(Cl)c1` [1,2,4-Trichlorobenzene] is 99.00 °C. Regarding `CC(O)CCO` (stereo unspecified) [1,3-Butylene glycol], in series [2], the flash point was 121.00 °C. The molecule `ClCCCCl` [1,3-Dichloropropane] had a flash point in series [2] of 35.00 °C. Still for that read-out and setting: the figure for `NCCCN` [1,3-Propanediamine] is 24.00 °C.

Turning to `ClCCCCl` [1,3-dichloropropane], the flash point was found to be 21 °C in series [3] and 32 °C in series [1].

As for `ClCCCCCl` [1,4-Dichlorobutane], the flash point in series [2] came out at 52.00 °C. Turning to `ClCCCCCl` [1,4-dichlorobutane], the flash point was 43 °C in series [3] and 40 °C in series [1].

Molecule `OCCCCCO` [1,5-Pentanediol] registered a flash point in series [2] of 135.00 °C. For `ClCCCCCCl` [1,5-dichloropentane], the values for the flash point in series [3] and in series [1] were 63 °C and 26 °C, respectively. `CCCCCl` [1-chlorobutane] had a flash point of -7.00 °C. This molecule also displayed a flash point in series [1] of -12 °C. For the molecule `CCCCCCCl` [1-chlorohexane], the flash point was found to be 35.00 °C. Also, the flash point in series [1] was 26 °C. In turn, `CCCCCCCCCl` [1-chlorooctane] came in with a flash point of 70.00 °C. This molecule returned a flash point in series [1] of 63 °C. `COCC(C)O` (stereo unspecified) [1-methoxy-2-propanol]: the flash point in series [3] is 31 °C; in series [1], 38 °C. For `C=CCCCCCCCCCCCC` [1-tetradecene] the same measures were 97 °C and 110 °C. As to `CC(O)C(C)O` (stereo unspecified) [2,3-Butylene glycol], in series [2], the flash point is 85.00 °C. In series [2], `CC(C)=CC(C)(C)C` [2,4,4-Trimethyl-2-pentene] had a flash point of 2.00 °C. In the case of `CC(=O)CC(C)=O` [2,4-Pentanedione], the flash point in series [2] was 41.00 °C. The same measure, in the same setting: the figure for `Nc1cc(Cl)ccc1Cl` [2,5-Dichloroaniline] is 166.00 °C; for `CCC(C=O)CC` [2-Ethyl butyraldehyde] it is 21.00 °C; for `CCCC=C(C=O)CC` [2-Ethyl-3-propyl acrolein] it is 68.00 °C. Same read-out and setting: the figure for `Oc1ccc2ccccc2c1` [2-Naphthol] is 153.00 °C; for `CC(C)[N+](=O)[O-]` [2-Nitropropane] it is 39.00 °C. On to `CCCC(C)C` [2-methylpentane], for which the flash point is -29.00 °C. In series [1], the flash point was -32 °C.

In the case of `COCCCN` [3-methoxypropylamine], the flash point in series [3] came to 23 °C; in series [1], 32 °C.

In the case of `CC=O` [Acetaldehyde], the flash point in series [2] is -38.00 °C. On to `CC(=O)O` [Acetic acid], for which the flash point in series [2] was 43.00 °C. The same measure, in the same setting: the figure for `CC(=O)OC(C)=O` [Acetic anhydride] is 54.00 °C.

In series [2], `CC(C)=O` [Acetone] gave a flash point of -18.00 °C. On the same count and under the same terms, the figure for `O=C(O)CCCCC(=O)O` [Adipic acid] is 191.00 °C; for `N#CCCCCC#N` [Adiponitrile] it is 93.00 °C; for `C=CCBr` [Allyl bromide] it is -1.00 °C. `COc1ccccc1` [Anisole] came in with a flash point in series [2] of 52.00 °C.

In series [2], `c1ccc2cc3ccccc3cc2c1` [Anthracene] registered a flash point of 121.00 °C. Still for that read-out and setting: the figure for `O=C1c2ccccc2C(=O)c2ccccc21` [Anthraquinone] is 185.00 °C.

In series [2], `O=Cc1ccccc1` [Benzaldehyde] displayed a flash point of 64.00 °C. Still for that read-out and setting: the figure for `c1ccccc1` [Benzene] is -11.00 °C; for `O=C(O)c1ccccc1` [Benzoic acid] it is 121.00 °C; for `FC(F)(F)c1ccccc1` [Benzotrifluoride] it is 12.00 °C. Still for that read-out and setting: the figure for `CC(=O)OCc1ccccc1` [Benzyl acetate] is 102.00 °C; for `OCc1ccccc1` [Benzyl alcohol] it is 101.00 °C. Take `O=C(OCc1ccccc1)c1ccccc1` [Benzyl benzoate]: the flash point in series [2] was 148.00 °C. The same measure, in the same setting: the figure for `ClCc1ccccc1` [Benzyl chloride] is 67.00 °C. In series [2], `SCc1ccccc1` [Benzyl mercaptan] yielded a flash point of 70.00 °C. In turn, `C1CCC(C2CCCCC2)CC1` [Bicyclohexyl] gave a flash point in series [2] of 74.00 °C.

The molecule `C=COCCCC` [Butyl vinyl ether] came in with a flash point in series [2] of -9.00 °C. Still for that read-out and setting: the figure for `CC12CCC(CC1=O)C2(C)C` (stereo unspecified) [Camphor] is 66.00 °C; for `Clc1ccccc1` [Chlorobenzene] it is 29.00 °C; for `FC(F)=C(F)Cl` [Chlorotrifluoroethylene] it is -27.00 °C. In turn, `O=CC=Cc1ccccc1` [Cinnamaldehyde] displayed a flash point in series [2] of 49.00 °C.

Regarding `NC1CCCCC1` [Cyclohexylamine], in series [2], the flash point worked out at 32.00 °C.

In turn, `c1ccc(C2CCCCC2)cc1` [Cyclohexylbenzene] registered a flash point in series [2] of 99.00 °C. Same read-out and setting: the figure for `C1CCCC1` [Cyclopentane] is -7.00 °C. The same measure, in the same setting: the figure for `CCCCCCCCOC(=O)c1ccccc1C(=O)OCCCCCCCC` [Di-n-Octyl phthalate] is 219.00 °C. The same measure, in the same setting: the figure for `CCCCCCC(C)OC(=O)c1ccccc1C(=O)OC(C)CCCCCC` (stereo unspecified) [Di-sec-Octyl phthalate] is 218.00 °C. `OCCOCCO` [Diethylene glycol] came in with a flash point in series [2] of 124.00 °C.

Molecule `CC(C)c1ccccc1C(C)C` [Diisopropyl benzene] came in with a flash point in series [2] of 76.00 °C. Same read-out and setting: the figure for `CS(C)=O` [Dimethyl sulphoxide] is 95.00 °C; for `CN(C)C=O` [Dimethylformamide] it is 58.00 °C. With `c1ccc(Nc2ccccc2)cc1` [Diphenylamine], the flash point in series [2] is 153.00 °C. Still for that read-out and setting: the figure for `c1ccc(Cc2ccccc2)cc1` [Diphenylmethane] is 130.00 °C; for `CCO` [Ethanol] it is 12.00 °C; for `CCOC(C)=O` [Ethyl acetate] it is -4.40 °C. On the same count and under the same terms, the figure for `C=CC(=O)OCC` [Ethyl acrylate] is 16.00 °C.

`CCCC(=O)OCC` [Ethyl butyrate]: the flash point in series [2] is 26.00 °C.

`O=CO` [Formic acid] had a flash point in series [2] of 69.00 °C. As to `OCc1ccco1` [Furfuryl alcohol], the flash point in series [2] stood at 75.00 °C.

The molecule `Clc1c(Cl)c(Cl)c(Cl)c(Cl)c1Cl` [Hexachlorobenzene] came in with a flash point in series [2] of 242.00 °C. The same measure, in the same setting: the figure for `CCCCCC` [Hexane] is -22.00 °C. In turn, `COc1ccc(O)cc1` [Hydroquinone monomethyl ether] showed a flash point in series [2] of 131.00 °C. The same measure, in the same setting: the figure for `CC(O)C#N` (stereo unspecified) [Lactonitrile] is 77.00 °C. Regarding `O=C1C=CC(=O)O1` [Maleic anhydride], in series [2], the flash point amounted to 102.00 °C. Same read-out and setting: the figure for `CC(=O)C=C(C)C` [Mesityl oxide] is 31.00 °C; for `COC(C)=O` [Methyl acetate] it is -9.00 °C.

In series [2], `CO` [Methyl alcohol] showed a flash point of 12.00 °C.

For `CCCCC(C)=O` [Methyl butyl ketone], in series [2], the flash point is 35.00 °C. Consider `COC` [Methyl ether], for which the flash point in series [2] is -41.00 °C. On the same count and under the same terms, the figure for `COC=O` [Methyl formate] is -19.00 °C.

`COC(=O)c1ccccc1O` [Methyl salicylate] came in with a flash point in series [2] of 101.00 °C.

In turn, `C=COC` [Methyl vinyl ether] showed a flash point in series [2] of -51.00 °C. For `CN` [Monomethylamine], in series [2], the flash point was -10.00 °C. The molecule `CCN(CC)c1ccccc1` [N,N-Diethylaniline ] showed a flash point in series [2] of 85.00 °C. Consider `CN(C)C1CCCCC1` [N,N-dimethylcyclohexylamine], for which the flash point in series [3] was determined as 41 °C; in series [1], 39 °C. `CCN1CCOCC1` [N-Ethylmorpholine] had a flash point in series [2] of 32.00 °C. As to `O=[N+]([O-])c1ccccc1` [Nitrobenzene], in series [2], the flash point amounted to 88.00 °C.

`CC[N+](=O)[O-]` [Nitroethane] showed a flash point in series [2] of 38.00 °C. In series [2], `CCCCCCCCCc1ccccc1O` [Nonyl phenol] returned a flash point of 141.00 °C. Take `CCCCCCCC/C=C\CCCCCCCC(=O)O` [Oleic acid]: the flash point in series [2] came to 189.00 °C. Same read-out and setting: the figure for `CC(=O)Oc1ccccc1` [Phenyl acetate] is 80.00 °C. Still for that read-out and setting: the figure for `c1ccc(Oc2ccccc2)cc1` [Phenyl ether] is 96.00 °C. For the molecule `O=C1OC(=O)c2ccccc21` [Phthalic anhydride], the flash point in series [2] was found to be 151.00 °C. The same measure, in the same setting: the figure for `C1CCNCC1` [Piperidine] is 16.00 °C. `CC#N` [acetonitrile] gave a flash point of 6.00 °C. This molecule also gave a flash point in series [1] of 13 °C. With `C1=CCCC1` [cyclopentene], the flash point in series [3] was -30 °C; in series [1], -0 °C. `CCCCCCC=O` [heptanal] registered a flash point of 35.00 °C. In addition, the flash point in series [1] is 41 °C. `CCCCCC=O` [hexanal] showed a flash point of 32.00 °C. The molecule also yielded a flash point in series [1] of 25 °C. `C=C1CCCCC1` [methylenecyclohexane]: the flash point in series [3] is -2 °C; in series [1], -6 °C. Take `CCCCCCCC(=O)Cl` [octanoyl chloride]: the flash point was found to be 81.00 °C. Also, the flash point in series [1] is 82 °C. For `CCCOC=O` [propyl formate] the same measures were -3.00 °C and -0 °C. For the molecule `COC(OC)OC` [trimethoxymethane], the flash point in series [1] is 15 °C. The same measure, in the same setting: the figure for `CCCCC#N` [valeronitrile] is 40 °C.

For the origin of these results see a flash point compilation (Sun et al. 2020).
